Reference: US10172355B2, “Safened herbicidal compositions including 4-amino-3-chloro-5-fluoro-6-(4-chloro-2-fluoro-3-methoxyphenyl)pyridine-2-carboxylic acid or a derivative thereof for use in rice” (Dow AgroSciences LLC, priority 2012, dated 2019)
Like-named read-outs stand apart in the source and are kept apart here.

Tests used:
[1] = test system: ECHCG=Echinochloa crus-galli; assay: Postemergence foliar-applied herbicides and safeners, visual injury of weed; type: in vivo; conditions: for pest or weed control at 140 g/ha: Echinochloa crus-galli, foliar, 480 h, read-out: Visual Injury (%) - 20 DAA ECHCG Obs, foliar, Compound A form 140 g ae/ha alone; for Mean Visual Injury (%) - 20-22 DAA ECHCG: post-emergence foliar
From the text: (§1) Seeds or nutlets of the desired test plant species were planted in a soil matrix prepared by mixing a loam or sandy loam soil (e.g., 28.6 percent silt, 18.8 percent clay, and 52.6 percent sand, with a pH of about 5.8 and an organic matter content of about 1.8 percent) and calcareous grit in an 80 to 20 ratio. The soil matrix was contained in plastic pots with a surface area of 84.6 square centimeters (cm^2). When required to ensure good germination and healthy plants, a fungicide treatment and/or other chemical or physical treatment was applied. The plants were grown for 8-22 days in a greenhouse with an approximate 14 hr photoperiod which was maintained at about 29° C. during the day and 26° C. during the night. Nutrients (Peters Excel 15-5-15 5-Ca 2-Mg and iron chelate) were applied in the irrigation solution as needed and water was added on a regular basis. Supplemental lighting was provided with overhead metal halide 1000-Watt lamps as necessary. The plants were employed for testing when they reached the second or third true leaf stage.
(§2) Treatments consisted of the acid or esters of 4-amino-3-chloro-5-fluoro-6-(4-chloro-2-fluoro-3-methoxy-phenyl)pyridine-2-carboxylic acid (compound A) and various safener components alone and in combination. Forms of compound A were applied on an acid equivalent basis. Safener components were applied on an active ingredient or acid equivalent basis depending on the compound.
(§3) Treatment requirements were calculated based upon the rates being tested, the concentration of active ingredient or acid equivalent in the formulation, and a 12 mL application volume at a rate of 187 L/ha.
(§4) For treatments comprised of formulated compounds, measured amounts of compounds were placed individually in 25 mL glass vials and diluted in a volume of 1.25% (v/v) Agri-dex crop oil concentrated to obtain 12× stock solutions. […] Application solutions were prepared by adding an appropriate amount of each stock solution (e.g., 1 mL) and diluted to the appropriate final concentrations with the addition of 10 mL of an aqueous mixture of 1.25% (v/v) Agri-dex crop oil concentrate so that the final spray solutions contained 1.25% (v/v) Agri-dex crop oil concentrate.
(§5) For treatments comprised of technical compounds, weighed amounts were placed individually in 25 mL glass vials and dissolved in a volume of 97:3 v/v acetone/DMSO to obtain 12× stock solutions. […] Application solutions were prepared by adding an appropriate amount of each stock solution (e.g., 1 mL) and diluted to the appropriate final concentrations with the addition of 10 mL of an aqueous mixture of 1.5% (v/v) Agri-dex crop oil concentrate so that the final spray solutions contained 1.25% (v/v) Agri-dex crop oil concentrate. When technical materials were used, the concentrated stock solutions were added to the spray solutions so that the final acetone and DMSO concentrations of the application solutions were […], respectively.
(§6) For treatments comprised of formulated and technical compounds, weighed amounts of the technical materials were placed individually in 25 mL glass vials and dissolved in a volume of 97:3 v/v acetone/DMSO to obtain 12× stock solutions, and measured amounts of the formulated compounds were placed individually in 25 mL glass vials and diluted in a volume of 1.5% (v/v) Agri-dex crop oil concentrate or water to obtain 12× stock solutions. […] Application solutions were prepared by adding an appropriate amount of each stock solution (e.g., 1 mL) and diluted to the appropriate final concentrations with the addition of an appropriate amount of an aqueous mixture of 1.5% (v/v) Agri-dex crop oil concentrate so that the final spray solutions contained 1.25% (v/v) Agri-dex crop oil concentrate. When required, additional water and/or 97:3 v/v acetone/DMSO was added to individual application solutions so that the final acetone and DMSO concentrations of the application solutions being compared were 8.1% and 0.25%, respectively. […]

ORYSA=Orysa sativa, Rice = assay: Postemergence foliar-applied herbicides and safeners in direct-seeded rice, visual injury; type: in vivo; conditions: for Visual crop injury (%) at 140 g/ha: Oryza sativa, 480 h, read-out: Visual Injury (%) - 20 DAA ORYSA-‘Clearfield 171’ Obs, foliar, Compound A form 140 g ae/ha alone; for Visual crop injury (%) at 140 g/ha / Visual Injury (%) - 21 DAA ORYSA-‘Clearfield 171’ Obs / Visual Injury (%) - 21 DAA ORYSA-‘Neptune’ Obs / Visual Injury (%) - 21 DAA ORYSA-‘Wells’ Obs: foliar; for Visual Injury (%) - 21 DAA ORYSA-‘Clearfield 171’ Obs / Visual Injury (%) - 21 DAA ORYSA-‘Neptune’ Obs / Visual Injury (%) - 21 DAA ORYSA-‘Wells’ Obs: Compound A form 70 g ae/ha alone, Tables 1,2,7,8; for Mean Visual Injury (%) - 20-22 DAA ORYSA ‘Clearfield 171’ / Mean Visual Injury (%) - 20-22 DAA ORYSA ‘Wells’: post-emergence foliar
From the text: as §1, §2, §3, §4, §5, §6

Row | Structure (SMILES) | pest or weed control at 140 g/ha ([1]; trial of Tables 3,4,6,10,12,14) | pest or weed control at 140 g/ha ([1]; trial of Tables 5,9,11,13) | Mean Visual Injury (%) - 20-22 DAA ECHCG ([1]; 2 g ae/ha) | Mean Visual Injury (%) - 20-22 DAA ECHCG ([1]; 4 g ae/ha) | Mean Visual Injury (%) - 20-22 DAA ECHCG ([1]; 8 g ae/ha) | Mean Visual Injury (%) - 20-22 DAA ECHCG ([1]; 16 g ae/ha) | Mean Visual Injury (%) - 20-22 DAA ECHCG ([1]; 32 g ae/ha) | Visual crop injury (%) at 140 g/ha (ORYSA=Orysa sativa, Rice; trial of Tables 3,4,6,10,12,14) | Visual crop injury (%) at 140 g/ha (ORYSA=Orysa sativa, Rice; trial of Tables 5,9,11,13) | Visual Injury (%) - 21 DAA ORYSA-‘Clearfield 171’ Obs (ORYSA=Orysa sativa, Rice) | Visual Injury (%) - 21 DAA ORYSA-‘Neptune’ Obs (ORYSA=Orysa sativa, Rice) | Visual Injury (%) - 21 DAA ORYSA-‘Wells’ Obs (ORYSA=Orysa sativa, Rice) | Mean Visual Injury (%) - 20-22 DAA ORYSA ‘Clearfield 171’ (ORYSA=Orysa sativa, Rice; 2 g ae/ha) | Mean Visual Injury (%) - 20-22 DAA ORYSA ‘Wells’ (ORYSA=Orysa sativa, Rice; 2 g ae/ha) | Mean Visual Injury (%) - 20-22 DAA ORYSA ‘Clearfield 171’ (ORYSA=Orysa sativa, Rice; 4 g ae/ha) | Mean Visual Injury (%) - 20-22 DAA ORYSA ‘Wells’ (ORYSA=Orysa sativa, Rice; 4 g ae/ha) | Mean Visual Injury (%) - 20-22 DAA ORYSA ‘Clearfield 171’ (ORYSA=Orysa sativa, Rice; 8 g ae/ha) | Mean Visual Injury (%) - 20-22 DAA ORYSA ‘Wells’ (ORYSA=Orysa sativa, Rice; 8 g ae/ha) | Mean Visual Injury (%) - 20-22 DAA ORYSA ‘Clearfield 171’ (ORYSA=Orysa sativa, Rice; 16 g ae/ha) | Mean Visual Injury (%) - 20-22 DAA ORYSA ‘Wells’ (ORYSA=Orysa sativa, Rice; 16 g ae/ha) | also measured
1 | COc1c(Cl)ccc(-c2nc(C(=O)O)c(Cl)c(N)c2F)c1F [Acid, 4-amino-3-chloro-6-(4-chloro-2-fluoro-3-methoxyphenyl)-5-fluoropyridine-2-carboxylic acid] | 98% | 96% | 57% | 81% | 91% | 95% | 96% | 43% | 38% | 22% | 40% | 12% | 0% | 0% | 0% | 0% | 2% | 0% | 11% | 7% | Mean Visual Injury (%) - 20-22 DAA ORYSA ‘Clearfield 171’ (ORYSA=Orysa sativa, Rice; 32 g ae/ha): 24%; Mean Visual Injury (%) - 20-22 DAA ORYSA ‘Wells’ (ORYSA=Orysa sativa, Rice; 32 g ae/ha): 12%
2 | COc1c(Cl)ccc(-c2nc(C(=O)OCc3ccccc3)c(Cl)c(N)c2F)c1F [Benzyl] | 98% | 99% | 63% | 91% | 94% | 95% | 96% | 13% | 15% | 0% | 5% | 0% | 0% | 0% | 0% | 0% | 0% | 0% | 8% | 3% | Mean Visual Injury (%) - 20-22 DAA ORYSA ‘Clearfield 171’ (ORYSA=Orysa sativa, Rice; 32 g ae/ha): 3%; Mean Visual Injury (%) - 20-22 DAA ORYSA ‘Wells’ (ORYSA=Orysa sativa, Rice; 32 g ae/ha): 3%
